The text below walks through data of PMC3435281 (PLoS ONE, 2012).

SMILES strings stand for the structures. Entries after “also recorded” stand apart in the source; their conditions may differ.

For orientation: EC50 means the concentration at which the effect is half-maximal.

Data set [1] relates to naïve T cells. In words: Naïve T cells in Th17 conditions, IL-17 ELISA of supernatant. Conditions: TGF-β 4 ng/ml, IL-6 20 ng/ml, 3 days. The format is cell-based, mouse. (In general: An ELISA detects its analyte on a solid surface through an enzyme-linked reagent.)
In data set [2] the test system is naïve T-cells with allogeneic BALB/C pDCs. In words: pDC/T cell coculture, qPCR of IDO and FoxP3. The class given is cell-based, mouse. The settings on record: 5 days, SU5416 500 nM, TCDD 10 nM. The text has this: An important role for the AHR in the immune system, and specifically T-cell differentiation, has been recognized and continues to be characterized in the literature, [7]. Some ligands of the AHR have the ability to enhance Treg differentiation from naïve T-cells (TCDD, kynurenine), while others direct differentiation towards Th17 effector cells (FICZ). […] IDO has long been known to play a role in Treg generation, and may be central to the mechanism of Dendritic Cell (DC)-directed Treg generation. […] As described in the Methods, naïve T-cells were sorted using magnetic bead separation, and placed in culture for 5 days with allogeneic pDCs separated from BALB/C mice. […] After 5 days, cells were collected and mRNA harvested for qPCR analysis of IDO and FoxP3. […] Naïve T cells were placed in culture with IL-6 and TGF-β, and harvested after 3 days of culture.
A. Spleens were harvested from mice and processed in the standard fashion. […] Same assay as A, but mRNA for CYP1B1 and IDO were measured. C.
Naive CD4^+CD25^− T cells were isolated from WT and AHR-null mice and cocultured with BALB/cJ pDCs isolated using the Miltenyi Mouse pDC Isolation Kit (Miltenyi Biotec) at a ratio of 20∶1 or 10∶1 as previously described (13). […] On day 5, cells were harvested and subjected to qPCR analysis.
In general terms: Real-time PCR tracks product formation cycle by cycle.

The test system of data set [3] is human ARNT. Kind of data set: DRE-luciferase in ARNT-deficient C4 cells transfected with ARNT. The format is cell-based. Conditions: ARNT or empty vector, 3 µM, 18 h.
For data set [4], the system named is DBA/2J mice (AHR^d). In words: In vivo hepatic microsomal EROD activity, DBA/2J. More on the design: species or system mouse. The settings on record: oral 30, 80 or 120 mg/kg, 48 hours. As for the experimental part:
We utilized the wild type rat hepatoma cell line, 5L, which harbors the high affinity AHR isoform, and our newly created AHR^d-15 cell line. […] Groups of control mice were given corn oil alone or BNF at the concentration of 120 mg/kg.
Figure 3 In Vitro dose response curves. A. Rat hepatoma cell lines bearing the murine AHR^d (AHR^d-15) or the rat AHR^b (5L) were incubated with increasing doses of TCDD in 96-well plates. After 40 hours, EROD activity was performed from whole cell lysate. (n = 3). […] (n = 3). C. Same assay as in A, with increasing doses of BNF. (n = 2). […] Following 48 hours, hepatic microsomal proteins were isolated and used for the assessment of EROD activity. Animals were treated in groups of 4. Error bars: S.D.
Hepatic microsomes were prepared by homogenizing 0.5 g of liver tissue in 5 mL of MENG buffer (25 mM buffer sodium morpholinopropane sulfonate buffer (pH 7.5) containing 0.025% (w/v) NaN3, 1 mM EGTA and 10% (v/v) glycerol). The homogenate was subjected to centrifugation at 10,000×g for 20 minutes, followed by centrifugation of the supernatant for 1 hour at 100,000×g and 4°C. The pellet was dissolved in 15 mM Tris-HCl buffer containing 250 mM sucrose (pH 8.0) and aliquots were stored at −80°C. Protein concentration was determined using the Bicinchoninic Acid Protein Assay Reagent (Pierce Biotechnology, Rockford, IL). […]

Data set [5] deals with human 101L-hepatoma cells. In words: Duration of DRE-luciferase activation. The format is cell-based. The settings on record: for luciferase activity: 100 nM.
For data set [6] the following is noted: known value; cited from earlier work.
The test system of data set [7] is CYP1A1 (induction through AHR^d). In words: CYP1A1 qPCR in AHR^d splenocytes. Conditions: AHR^d congenic on a C57BL/6J background, mouse. As for the experimental part:
As the above in vitro experiments were performed in cell lines, we next utilized AHR^b (C57BL/6J) and AHR^d congenic mice (on a C57BL/6J background). […] Normalized data was chosen to allow comparison of CYP1A1 upregulation to its maximum in AHR^b versus AHR^d mice.
Figure 4 Splenocytes from wild-type and AHR^d mice analyzed by qPCR for CYP1A1. […] After 4 hours they were analyzed by qPCR for CYP1A1 analysis. The curves are normalized from 0 to 100% response. […] Cos-1 cells were transfected with an AHR containing the same point mutation (valine for alanine) thought to be responsible for the low affinity of the AHR^d isoform compared to AHR^b, and compared to the wild-type AHR response. These cells also harbor a luciferase gene next to the DRE. C. Cos-1 cells were exposed to TCDD. […]
Spleen was harvested from mice at the time of euthanasia and single cell suspensions were made. […] The relative quantitation PCR for IDO1 (Mm00492586-m1) and GAPDH (4352339-E0806018) were performed in the Applied Biosystems 7900HT Fast Real-Time PCR System (Applied Biosystems), and TaqMan Universal PCR Master Mix (Applied Biosystems) was used as a reaction reagent. The relative quantitation PCR for Foxp3, CYP1A1, CYP1B1, and GAPDH were processed by the Bio-Rad iCycler (Bio-Rad) and iQ SYBR Green Supermix ([…]) was used as the reaction reagent.

As for `Cc1cc(C)c(C=C2C(=O)Nc3ccccc32)[nH]1` [SU5416, 3-(3,5-dimethyl-1H-pyrrol-2-ylmethylene)-1,3-dihydro-indole-2-one], the results for the “IL-17 protein by ELISA in the supernatant” value in data set [1] (higher doses) and in data set [1] (low doses) were “did not see this effect” and “small increase”, respectively. Also, the “FoxP3 mRNA” value in data set [2] is listed as “generated; also recorded: to a greater extent than TCDD”. Moreover, the “IDO mRNA” value in data set [2] is reported as “generated; also recorded: to a greater extent than TCDD”. Besides, in data set [3], the DRE-luciferase activity result was “activity was only seen when ARNT was transfected”. Moreover, the “hepatic EROD activity” value in data set [4] is listed as “dose-dependent increase”. Further, the “luciferase activity as percent of TCDD response (1 nM)” value in data set [5] was ≤ 20%. The luciferase activity entry is “has activity” in data set [5] (4 hours) and “no longer causes luciferase activity” in data set [5] (24 hours). Besides, the plasma half-life in data set [6] is 30 min.
With `Clc1cc2c(cc1Cl)Oc1cc(Cl)c(Cl)cc1O2` [TCDD, 2,3,7,8-tetrachlorodibenzo-p-dioxin], in data set [2], the “FoxP3 mRNA” value is on record as “upregulation was also seen” and the “IDO mRNA” value is given as “upregulation was also seen”. Further, in data set [7], it took 1.89 nM to reach a half-maximal effect (EC50 at 4 h). Besides, the “duration of DRE-binding” value in data set [5] (1 nM, 4 to 96 hours) was “long duration DRE-binding”.
